Square brackets hold non-standard residues; d marks the D form. Ends that are not written are not given here. Peptide text beside a SMILES is read from it.
Experiments:
[1] = system: pulmonary circulation; settings: rat, in vivo
Text: (§1) See Vavrek supra for assay methods.
Bradykinin and (NBzlGly^7)-bradykinin were virtually identical with respect to destruction (98-99%) on passage through the pulmonary circulation.

[2] = system: rat uterus; assay: Smooth muscle bioassay: rat uterus contraction; format: cell-based; settings: bradykinin = 100%
Text: as §1
Rat Uterus, rat uterus contraction;

[3] = system: guinea pig ileum; assay: Smooth muscle bioassay: guinea pig ileum contraction; format: cell-based; settings: bradykinin = 100%
Text: as §1
GP Ileum, guinea pig ileum contraction;

[4] = system: rat blood pressure; assay: Rat blood pressure assay; format: in vivo; settings: bradykinin = 100%
Text: | See Vavrek supra for assay methods.

Molecule	Destruction [1] [%]	Smooth Muscle Rat Uterus (rat uterus contraction), potency relative to bradykinin [2] [%]	Smooth Muscle GP Ileum (guinea pig ileum contraction), potency relative to bradykinin [3] [%]	Rat Blood Pressure IA, potency relative to bradykinin ([4]; intraaortic administration) [%]	Rat Blood Pressure IV, potency relative to bradykinin ([4]; intravenous administration) [%]
NC(N)=NCCC[C@H](NC(=O)[C@H](Cc1ccccc1)NC(=O)[C@@H](Cc1ccccc1)NC(=O)[C@H](CO)NC(=O)[C@H](Cc1ccccc1)NC(=O)CNC(=O)[C@@H]1CCCN1C(=O)[C@@H]1CCCN1C(=O)[C@@H](N)CCCN=C(N)N)C(=O)O [[D-Phe^7]-Bradykinin, (D-Phe^7)-bradykinin] (H-RPPGFS[dF]FR-OH)	36	–	–	–	–
RPPGFSPFR [Bradykinin]	–	100	100	100	100

From US5527882A, “Polypeptide having an amino acid replaced with N-benzylglycine” (The Regents of the University of California, priority 1994, dated 1996)
